“And” between values parts separate entries of the source, which are not always exact repeats. Identical values can stand only once.
System: 521955-158-R2-J5-PDC complex spheroid viability
Experiment: Anticancer human tumor 521955-158-R2-J5-PDC patient-derived pancreatic carcinoma cell line growth inhibition [GQUAD]
Conditions: for viability, T/C: stronger effect = lower value
Text: DNA G-quadruplex Stabilizer Agents in Combinations in Complex Spheroids
A high-throughput screen of multi-cell type tumor spheroids was designed to identify active combinations of DNA G-quadruplex stabilizer agents and targeted small molecules. Complex spheroids include a stromal component modeled by human endothelial cells (HUVEC) and fibroblasts modeled by human mesenchymal stem cells (MSCs). The concentration ranges selected for each drug and investigational agent were based upon clinically achievable concentrations if the clinical Cmax of the agent was known.
Compounds. The drugs and investigational agents: pidnarulex (CX-5461; NSC782164), APTO-253 (NSC789042), BRACO-19 (NSC847499), peposertib (NSC802822), ceralasertib (NSC780249), elimusertib (NSC800525), camonsertib (NSC841442), AZD-1390 (NSC803789), olaparib (NSC753686), talazoparib (NSC767125), ART-558 (NSC835418), sotorasib (NSC818433), MRTX-1133 (NSC836407), SN-38 (NSC673596), topotecan (NSC609699), etoposide (NSC141540), doxorubicin (NSC123127), gemcitabine (NSC613327), 5-fluorouracil (NSC19893), paclitaxel (NSC125973), vemurafenib (NSC761431), panobinostat (NSC761190), R-306465 (JNJ-16241199; NSC773264), adavosertib (NSC754352), TP-3654 (NSC805149), carboplatin (NSC241240), KSQ-4279 (NSC840948), and staurosporine (NSC755774) were obtained from the National Cancer Institute (NCI) Developmental Therapeutics Program Chemical Repository (34). The FDA-approved anticancer drug set is available from the NCI Developmental Therapeutics Program. […] The stock solutions were prepared in dimethyl sulfoxide (DMSO, Sigma-Aldrich, St. Louis, MO, cat. D2650) at 800-fold the tested concentration and stored at -70 degrees C prior to their use. All drugs and investigational agents were tested over a range starting from a high concentration at or near the clinical Cmax and decreasing in half-log increments. If the clinical Cmax for an agent had not been determined, the highest concentration tested was 10 microM.
2.3 Cell Culture. All cells were maintained in an incubator at 37 degrees C and 5% CO2 with 95% humidity. The PDC lines were cultured according to standard operating procedures established by the NCI PDMR. All PDCs were thawed and cultured in Matrigel-coated flasks prepared with a working solution of 1X Ham's F-12 nutrient mix, without supplementation (Invitrogen, cat. 11765054), 100 U/mL penicillin-streptomycin (Invitrogen, cat. 15140122), and 2.5% Matrigel (Corning Inc., cat. 354248) for the first three passages. The 857933-349-R-J2-PDC line was cultured in 6C/Colon 1B media, which includes advanced DMEM/F-12 (Thermo Fisher Scientific, cat. 12634028), 10 mM HEPES (Thermo Fisher Scientific, cat. 15630080), 1X GlutaMAX supplement (Thermo Fisher Scientific, cat. 35050061), 0.1 mg/mL primocin (InvivoGen, cat. ant-pm-2), 10% defined fetal bovine serum, heat inactivated (HyClone Laboratories Inc., cat. SH30070.03HI), 50% L-WRN conditioned media (ATCC, cat. CRL-3276), 1.25 mM N-Acetyl-L-cysteine (Sigma-Aldrich, cat. A9165), 10 mM nicotinamide (Sigma-Aldrich, cat. N0636), 1X B-27 supplement (Thermo Fisher Scientific, cat. 17504044), 1X N-2 supplement (Thermo Fisher Scientific, cat. 17502048), 10 microM Y-27632 dihydrochloride (Tocris Bioscience, cat. 1254), and 50 ng/mL human EGF recombinant protein (Thermo Fisher Scientific, cat. PHG0311). The 485176-168-R4-J1-PDC line was cultured in Panc media, which includes all 6C/Colon 1B media components plus 100 ng/mL human FGF-10 (Thermo Fisher Scientific, cat. 100-26), 500 nM SB-431542 (Selleckchem, cat. S1067), and gastrin (Tocris, cat. 3006).
[…]
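Also: spheroids exposed to agents for one week before reading.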
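For viability, T/C in this document: 100% = DMSO vehicle control viability.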

With `Cc1[nH]c2ccccc2c1CCNCc1ccc(/C=C/C(=O)NO)cc1` + Cc1[nH]c2ccc(F)cc2c1-c1nc2c3cccnc3c3ncccc3c2[nH]1 the IC50 (curve of first compound, second compound 0.0316 µM) was 112 nM, the IC50 (curve of first compound, second compound 0.1 µM) was 156 nM and the IC50 (curve of first compound, second compound 0.316 µM) was 137 nM. It also gave an IC50 (curve of first compound, second compound 1 µM) of 224 nM, an IC50 (curve of first compound, second compound 3.16 µM) of 207 nM and an IC50 (curve of first compound, second compound 10 µM) of 157 nM. For the same molecule, the viability, T/C (second compound 0.0316 µM, first compound 0.000999 µM) was 116%, the viability, T/C (second compound 0.0316 µM, first compound 0.00316 µM) was 120% and the viability, T/C (second compound 0.0316 µM, first compound 0.00999 µM) was 132%. The viability, T/C (second compound 0.0316 µM, first compound 0.0316 µM) was 102%, the viability, T/C (second compound 0.0316 µM, first compound 0.0999 µM) was 54.1% and the viability, T/C (second compound 0.0316 µM, first compound 0.316 µM) was 23.1%. It also gave a viability, T/C (second compound 0.1 µM, first compound 0.000999 µM) of 106%, a viability, T/C (second compound 0.1 µM, first compound 0.00316 µM) of 109% and a viability, T/C (second compound 0.1 µM, first compound 0.00999 µM) of 122%. The viability, T/C (second compound 0.1 µM, first compound 0.0316 µM) was 116%, the viability, T/C (second compound 0.1 µM, first compound 0.0999 µM) was 64.5% and the viability, T/C (second compound 0.1 µM, first compound 0.316 µM) was 27.3%. It also gave a viability, T/C (second compound 0.316 µM, first compound 0.000999 µM) of 96.4%, a viability, T/C (second compound 0.316 µM, first compound 0.00316 µM) of 108% and a viability, T/C (second compound 0.316 µM, first compound 0.00999 µM) of 117%. The viability, T/C (second compound 0.316 µM, first compound 0.0316 µM) was 114%, the viability, T/C (second compound 0.316 µM, first compound 0.0999 µM) was 58.3% and the viability, T/C (second compound 0.316 µM, first compound 0.316 µM) was 27.8%. The viability, T/C (second compound 1 µM, first compound 0.000999 µM) was 105%, the viability, T/C (second compound 1 µM, first compound 0.00316 µM) was 123% and the viability, T/C (second compound 1 µM, first compound 0.00999 µM) was 131%. For the same molecule, the viability, T/C (second compound 1 µM, first compound 0.0316 µM) was 106%, the viability, T/C (second compound 1 µM, first compound 0.0999 µM) was 102% and the viability, T/C (second compound 1 µM, first compound 0.316 µM) was 27.9%. The viability, T/C (second compound 3.16 µM, first compound 0.000999 µM) was 106%, the viability, T/C (second compound 3.16 µM, first compound 0.00316 µM) was 110% and the viability, T/C (second compound 3.16 µM, first compound 0.00999 µM) was 118%. For the same molecule, the viability, T/C (second compound 3.16 µM, first compound 0.0316 µM) was 109%, the viability, T/C (second compound 3.16 µM, first compound 0.0999 µM) was 92% and the viability, T/C (second compound 3.16 µM, first compound 0.316 µM) was 25.6%. For the same molecule, the viability, T/C (second compound 10 µM, first compound 0.000999 µM) was 92.4%, the viability, T/C (second compound 10 µM, first compound 0.00316 µM) was 105% and the viability, T/C (second compound 10 µM, first compound 0.00999 µM) was 110%. For the same molecule, the viability, T/C (second compound 10 µM, first compound 0.0316 µM) was 115%, the viability, T/C (second compound 10 µM, first compound 0.0999 µM) was 66.3% and the viability, T/C (second compound 10 µM, first compound 0.316 µM) was 24.7%.
In the case of `CC(=O)O[C@H]1C(=O)[C@@]2(C)[C@H]([C@H](OC(=O)c3ccccc3)[C@]3(O)C[C@H](OC(=O)[C@H](O)[C@@H](NC(=O)c4ccccc4)c4ccccc4)C(C)=C1C3(C)C)[C@]1(OC(C)=O)CO[C@@H]1C[C@@H]2O`, the viability, T/C (compound 0.0316 µM) is reported as 55.7% and 44.9% and 22.1%, the viability, T/C (compound 0.1 µM) is reported as 41.9% and 46.4% and 14.2% and the viability, T/C (compound 0.316 µM) is reported as 27.7% and 32.3% and 8.41%. The viability, T/C (compound 1 µM) was 33.1% and 30.1% and 9.52%, the viability, T/C (compound 3.16 µM) was 22.9% and 28.9% and 11.5% and the viability, T/C (compound 10 µM) was 29.9% and 31.3% and 16%. The IC50 (curve of compound) was 50.9 nM and < 31.6 nM.
`COc1ccc([C@@H](O)c2cc(-c3ncnc4cc(N5CCOCC5)ccc34)c(F)cc2Cl)nn1` was tested, and the viability, T/C (compound 0.0316 µM) was 88.1% and 109% and 104%, the viability, T/C (compound 0.1 µM) was 87% and 96.8% and 88.3% and the viability, T/C (compound 0.316 µM) was 83.3% and 97% and 86.6%. The viability, T/C (compound 1 µM) was 63.6% and 77.3% and 58.9%, the viability, T/C (compound 3.16 µM) was 50.2% and 64.8% and 50.8% and the viability, T/C (compound 10 µM) was 38% and 42.1% and 40.9%. For the same molecule, the IC50 (curve of compound) was 2810 nM and 6670 nM and 2890 nM.

Reference: PubChem BioAssay AID2060495 (Molecular Pharmacology Branch, DTP, NCI, 2025)
